Assay: Pharmacokinetic study of the oral carnitine challenge test (OCCT)
Format: in vivo, human
Settings: 13 volunteers
Protocol: Oral carnitine challenge test (OCCT): All the participants fasted overnight (>8 hours) before the OCCT. Fasting blood and spot urine samples were collected as baseline, and three tablets of L-carnitine fumarate (GNC) were then administered orally to the participants. Subsequently, the participants underwent time-series blood drawings with concurrent spot urine collections at 24 hours and 48 hours after the oral carnitine challenge. The participants were requested to provide urine samples within 2 hours of blood sample collections. All the participants were asked to avoid red meat, seafood and any medication during the period of the carnitine challenge test. The plasma and urine samples were aliquoted after centrifugation at 3000 rpm and stored in a freezer at −20° C. Ten carnitine tablets (GNC) were examined through HPLC to verify the amount of L-carnitine used in the OCCT. The mean dose of carnitine fumarate in each tablet was 693.5 (SD±63.2) mg (≈400 mg L-carnitine/tablet).
Pharmacokinetic study of plasma TMAO by oral administration of carnitine: Thirteen independent volunteers were recruited for a pharmacokinetic study of the OCCT. After the oral carnitine challenge, blood samples were collected at 4, 8, 12, 24, 36 and 48 hours. Six of the volunteers agreed to participate in the same pharmacokinetic test again 3 months later. All the volunteers signed informed consent waivers provided by the Institutional Review Board of National Taiwan University Hospital.
Plasma TMAO peaked in the interval between 24 hours and 48 hours of the OCCT: This example assumed that TMAO formation in blood occurred at approximately 24 hours of the OCCT based on the time required for bowel transit, microbial catabolism and the enzymatic reaction of hepatic FMO3 to convert the ingested carnitine into plasma TMAO. The example performed a pharmacokinetic study of the OCCT to confirm this hypothesis (FIG. 4). In the study, 13 participants received seven blood tests at indicated time points after ingestion of three tablets of L-carnitine fumarate (General Nutrition Centers (GNC), Pennsylvania, USA). […]

[1] = three tablets of L-carnitine fumarate orally

SMILES: C[N+](C)(C)C[C@H](O)CC(=O)[O-].O=C(O)/C=C/C(=O)O [L-carnitine fumarate]
- time at which plasma carnitine level peaked after OCCT (three tablets of L-carnitine fumarate (GNC, approximately 1200 mg L-carnitine) orally): 4 h
- plasma TMA level after OCCT [1]: very low concentration
- plasma γ-butyrobetaine level after OCCT [1]: very low concentration
